Assay results from patent US6465646B1, “1-alkoxy and 1-acyloxy substituted cyclohex-1-ene compounds and sulfur and 1-alkoxycarbonyl analogs having retinoid-like biological activity” (Allergan, Inc., priority 1999, dated 2002).

Tested on: ornithine decarboxylase (ODC)
Test: Ornithine decarboxylase (ODC) assay: inhibition of TPA induction of ODC activity
Format: cell-based
Text: A classic measure of retinoic acid activity involves measuring the effects of refinoic acid on ornithine decarboxylase (ODC). The original work on the correlation between retinoic acid and decrease in cell proliferation was done by Verma & Boutwell, Cancer Research, 1977,37, 2196-2201. That reference discloses that ornithine decarboxylase activity increased precedent to polyamine biosynthesis. It has been established elsewhere that increases in polyamine synthesis can be correlated or associated with cellular proliferation. Thus, if ODC activity could be inhibited, cell hyperproliferation could be modulated. Although all cases for ODC activity increases are unknown, it is known that 12-O-tetradecanoylphorbol-13-acetate (TPA) induces ODC activity. Retinoic acid inhibits this induction of ODC activity by TPA. […] “IC60” is that concentration of the test compound which causes 60% inhibition in the ODC assay. By analogy, “IC80”, for example, is that concentration of the test compound which causes 80% inhibition in the ODC assay.

Row | IC80 (footnote 1: IC80, read-out: IC80 (concentration of the test compound which causes 80% inhibition in the ODC assay)) [nM] | IC60 (concentration of the test compound which causes 60% inhibition in the ODC assay) (footnote 2: IC60) | Compound
1 | 0.46 | – | CCOC(=O)c1ccc(C#C/C=C/C2=C(O[Si](C)(C)C)CCCC2(C)C)cc1 [Compound 1, Ethyl (±)-(E)-4-(4-(6,6-dimethyl-2-(trimethylsily)oxycyclohex-1-enyl)but-3-en-1-yn-yl)benzoate]
2 | – | 0.3^2 nanomolar | CCOC(=O)c1ccc(C#C/C=C/C2=C(C(=O)OC)CCCC2(C)C)cc1 [Compound 6, Ethyl (E)-4-(4-(6-Carbomethoxy-2,2-dimethylcyclohex-1-enyl)but-3-en-1-yn-yl)benzoate]
